Reference: US6855801B1, “Peptides modulating activities of heparin other glycosaminoglycans or proteoglycans” (Thomas Jefferson University, priority 1999, dated 2005)

Assays:
[1] = Affinity coelectrophoresis (ACE) of radiolabeled heparin through peptides; type: binding, pig; conditions: ACE, low Mr heparin
Text: Preparation of Radiolabeled Heparin—Whole heparin from pig intestinal mucosa (Sigma) was tyramine end-labeled and radiolabeled with Na^125I (Amersham, Pharmacia Biotech, Inc., Piscataway, N.J.) to an average specific activity ≅1.0×10^7 CPM/μg as described^59. Radiolabeled heparin was fractionated on Sephadex G-100 (Bio-Rad Laboratories, Hercules, Calif.) and the final ≅12% of material to elute was retained as the low Mr material of ≦6,000 (Jordan, R., D. Beeler, and R. Rosenberg, J Biol Chem, 254:2902-2913, 1979; Laurent, T. C., et al., Biochem J, 175:691-701, 1978).
Briefly, peptides were dissolved in 1×ACE running buffer, 50 mM sodium 3-(N-morpholino)-2-hydroxypropanesulfonate (MOPSO, Sigma)/125 mM sodium acetate, pH 7.0, and serially diluted in running buffer at 2× concentrations. Peptides were then mixed 1:1 with 2% agarose/1% CHAPS, 3-[(3-cholamidopropyl)dimethylammonio]-1-propanesulfonate, (Boehringer Mannheim, Indianapolis, Ind.), and loaded into wells of a 1% agarose gel. Radiolabeled heparin or HUVEC PGs were then loaded in a slot on the […] side of the gel, and electrophoresed through the peptide-containing wells, towards the cathode. Gels were dried and PG mobility was measured with a Phosphorimager (Molecular Dynamics, Sunnyvale, Calif.) by scanning each protein lane and determining the relative radioactivity content per. 88-μm pixel through the length of the lane. Retardation coefficient (R) measurements, binding isotherm curve fittings, and apparent Kd value determinations were calculated as detailed previously (Lee, M. K., and A. D. Lander, Proc Nat Acad Sci USA, 88:2768-2772, 1991; San Antonio, J. D., et al, Biochem, 32:47464755, 1993).
Some peptides were also analyzed by ACE for heparin-binding under reducing conditions. Thus, after serial peptide dilution, β-mercaptoethanol (β-ME) was added at 5% to each peptide sample, and these were mixed 1:1 with 2% agarose/1% CHAPS/5% β-ME, and added to the ACE gel sample wells as usual.

Lovenox = experiment: Reversal of anti-Factor Xa activity in vitro (Stachrom Heparin chromogenic assay), Lovenox; type: biochemical, human; conditions: 0.5 U/ml anti-Factor Xa activity
Description: (§1) Solutions of Lovenox, Orgaran, or unfractionated heparin (Sigma) were prepared in 0.32% sodium citrate or in normal human plasma to contain 0.5 U/ml anti-FXa activity. Calibrations were made against the standards provided by the Stachrom Heparin (Diagnostica Stago) assay kit. The heparin/ATIII complex was allowed to form at 37° C. for 2 minutes, peptide was added, the mixture was incubated for an additional 1-5 minutes, and then Factor Xa was added, and finally the color reagent, for one minute, and the absorbance was read at 405 nm. The increase in absorbance from the heparinized control to the test sample was divided by the difference in A405 between the heparinized control and the control without heparin to obtain the % reversal.

Orgaran = experiment: Reversal of anti-Factor Xa activity in vitro (Stachrom Heparin chromogenic assay), Orgaran; type: biochemical, human; conditions: 0.5 U/ml anti-Factor Xa activity
Description: as §1

unfractionated heparin [2] = experiment: Reversal of anti-Factor Xa activity in vitro (Stachrom Heparin chromogenic assay), unfractionated heparin; type: biochemical, human; conditions: 0.5 U/ml anti-Factor Xa activity
Description: as §1

unfractionated heparin [3] = experiment: Reversal of anti-thrombin effects of unfractionated heparin in vitro (thrombin clotting time in plasma); type: biochemical, human; conditions: heparin 0.5 U/ml; thrombin standardized to clotting time 20-22 seconds
Description: Plasma was obtained from normal donors. Thrombin concentration (human alpha thrombin, Enzyme Research Laboratories, South Bend, Ind.) was standardized to produce a clotting time of 20-22 seconds. Heparin was added at 0.5 IU anti-thrombin activity/ml. The clotting time for heparin alone was approximately 3 minutes. To test the effects of the peptides in this system, one minute after addition of heparin to the plasma, the peptides were added in concentrations ranging from 1-200 μg/ml. After one minute, thrombin was added and the clotting time determined. The effects of the peptides were concentration dependent. The clotting time was restored to normal values in all samples at the dosages shown below in Table III. The ability of the peptides to neutralize heparin inhibition of thrombin clotting time was consistent with the binding affinities shown in Table I, and with the effectiveness against low molecular weight heparin anti-Factor Xa activity in Table II.

heparin-binding affinity in words [1]	Sequence	Percent Reversal of anti-Factor Xa Activity, Lovenox (Lovenox; peptide 0.12 mg/ml in plasma) [%]	Percent Reversal of anti-Factor Xa Activity, Lovenox (Lovenox; peptide 0.4 mg/ml in plasma) [%]	Percent Reversal of anti-Factor Xa Activity, Lovenox (Lovenox; peptide 0.6 mg/ml in plasma) [%]	Percent Reversal of anti-Factor Xa Activity, Orgaran (Orgaran; peptide 0.12 mg/ml in plasma) [%]	Percent Reversal of anti-Factor Xa Activity, Orgaran (Orgaran; peptide 0.4 mg/ml in plasma) [%]	Percent Reversal of anti-Factor Xa Activity, Orgaran (Orgaran; peptide 0.6 mg/ml in plasma) [%]	Percent Reversal of anti-Factor Xa Activity, Heparin (unfractionated) (unfractionated heparin [2]; peptide 0.12 mg/ml in plasma) [%]	Percent Reversal of anti-Factor Xa Activity, Heparin (unfractionated) (unfractionated heparin [2]; peptide 0.4 mg/ml in plasma) [%]	Percent Reversal of anti-Factor Xa Activity, Heparin (unfractionated) (unfractionated heparin [2]; peptide 0.6 mg/ml in plasma) [%]	μg peptide/ml heparinized plasma needed to normalize thrombin time (unfractionated heparin [3])
strong	AKKARAAKKARAAKKARAAKKARAAKKARAAKKARA [(AKKARA)6, XBBXBX tandem repeat peptide]	86	86.5	82.5	74.5	81.5	77	99	97.5	93	5 μg peptide/ml heparinized plasma
weak	AKKARAAKKARA [(AKKARA)2, XBBXBX tandem repeat peptide]			61.5			37.0			67.0	>50 μg peptide/ml heparinized plasma
